Settings: 343.14 K, Liquid, Vibrating tube method

CCCCCCC(=O)OCC(COC(=O)CCCCCC)(COC(=O)CCCCCC)COC(=O)CCCCCC [pentaerythritol tetraheptanoate]
Settings | mass density [kg/m3]
14033 kPa | 950.8
14046 kPa | 950.8
14058 kPa | 950.9
14074 kPa | 950.7
14087 kPa | 950.9
14100 kPa | 950.9
14113 kPa | 950.8
14129 kPa | 950.8
14142 kPa | 950.8
14157 kPa | 951
14170 kPa | 951
14183 kPa | 951
14199 kPa | 951
14212 kPa | 950.9
14225 kPa | 950.9
14239 kPa | 951
14255 kPa | 951
14268 kPa | 950.9
14281 kPa | 951.1
14298 kPa | 951
14311 kPa | 951.1
14324 kPa | 951
14340 kPa | 950.9
14354 kPa | 951.1
14367 kPa | 951.1
14383 kPa | 951
16135 kPa | 952.3
16152 kPa | 952.4
16173 kPa | 952.3
16190 kPa | 952.3
16208 kPa | 952.3
16228 kPa | 952.4
16245 kPa | 952.4
16263 kPa | 952.3
16283 kPa | 952.4
16301 kPa | 952.4
16319 kPa | 952.4
16339 kPa | 952.5
16357 kPa | 952.5
16376 kPa | 952.4
16394 kPa | 952.5
16415 kPa | 952.5
16433 kPa | 952.5
16451 kPa | 952.7
16472 kPa | 952.5
16490 kPa | 952.5
16508 kPa | 952.6
16526 kPa | 952.6
16548 kPa | 952.6
16566 kPa | 952.5
16585 kPa | 952.6
16607 kPa | 952.7
16626 kPa | 952.7
16645 kPa | 952.7
16664 kPa | 952.6
16682 kPa | 952.6
16704 kPa | 952.7
16722 kPa | 952.8
16744 kPa | 952.8
16763 kPa | 952.7
16781 kPa | 952.7
16800 kPa | 952.7
16822 kPa | 952.8
16841 kPa | 952.8
16863 kPa | 952.8
16901 kPa | 952.8
16924 kPa | 952.8
16943 kPa | 952.9
16962 kPa | 953
16981 kPa | 952.9
17004 kPa | 952.9
17022 kPa | 953
17042 kPa | 953
17065 kPa | 953
17084 kPa | 953.1
17107 kPa | 952.9
17126 kPa | 952.9
17146 kPa | 953
17165 kPa | 953
17188 kPa | 953.1
17208 kPa | 953
17227 kPa | 953.1
17251 kPa | 953.1
17270 kPa | 953.2
17294 kPa | 953.2
17314 kPa | 953.2
17334 kPa | 953.1
17358 kPa | 953.1
17378 kPa | 953.1
17398 kPa | 953.2
17419 kPa | 953
17443 kPa | 953.1
17593 kPa | 953.4
17613 kPa | 953.2
17638 kPa | 953.3
17659 kPa | 953.4
17680 kPa | 953.3
17701 kPa | 953.4
17722 kPa | 953.4
17747 kPa | 953.4
17768 kPa | 953.5
17789 kPa | 953.5
17815 kPa | 953.5
17835 kPa | 953.5
17860 kPa | 953.4
17902 kPa | 953.5
17928 kPa | 953.4
18040 kPa | 953.6
18066 kPa | 953.6
18088 kPa | 953.5
18109 kPa | 953.6
18130 kPa | 953.7

— the NIST ThermoML archive (doi:10.1021/je060271a)
